Laboratory results: ChEMBL document CHEMBL4130473, “Design, synthesis and biological evaluation of 4,7,12,12a-tetrahydro-5H-thieno[3',2':3,4]pyrido[1,2-b]isoquinolines as novel adenosine 5'-monophosphate-activated protein kinase (AMPK) indirect activators for the treatment of type 2 diabetes” (Eur J Med Chem, 2017)
The source made the active and inactive calls. The calls are words filed in the database; no cut-off is given here.

Key:
[1] = Inhibition of oxygen consumption rate in isolated mitochondria from rat L6 cells assessed as oxygen consumption level at 10 uM (reference value: 100 +/- 1.9%); assay type: functional; design: scale not given: the % may be the effect or the level left
[2] = biological target: AMPK alpha1/beta2/gamma1 (Homo sapiens) (UniProt O43741+P54619+Q13131); assay: Activation of human recombinant AMPKalpha1beta2gamma1 expressed in Escherichia coli at 20 uM incubated for 1 hr using serine/threonine kinase substrate
[3] = biological target: AMPK alpha2/beta1/gamma1 (Homo sapiens) (UniProt P54646+P54619+Q9Y478); assay: Activation of human recombinant AMPKalpha2beta1gamma1 expressed in Escherichia coli at 20 uM incubated for 1 hr using serine/threonine kinase substrate
Chain of AMPK alpha2/beta1/gamma1 (Homo sapiens) (P54619 whole entry partner): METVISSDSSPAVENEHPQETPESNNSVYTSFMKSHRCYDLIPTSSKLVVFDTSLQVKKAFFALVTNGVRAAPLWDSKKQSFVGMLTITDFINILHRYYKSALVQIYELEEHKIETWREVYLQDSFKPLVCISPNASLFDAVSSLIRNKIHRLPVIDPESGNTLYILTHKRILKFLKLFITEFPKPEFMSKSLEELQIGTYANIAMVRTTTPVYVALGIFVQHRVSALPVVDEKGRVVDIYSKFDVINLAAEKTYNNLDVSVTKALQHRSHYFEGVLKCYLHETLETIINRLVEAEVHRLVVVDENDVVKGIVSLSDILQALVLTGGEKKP
Chain of AMPK alpha2/beta1/gamma1 (Homo sapiens) (P54646 whole entry): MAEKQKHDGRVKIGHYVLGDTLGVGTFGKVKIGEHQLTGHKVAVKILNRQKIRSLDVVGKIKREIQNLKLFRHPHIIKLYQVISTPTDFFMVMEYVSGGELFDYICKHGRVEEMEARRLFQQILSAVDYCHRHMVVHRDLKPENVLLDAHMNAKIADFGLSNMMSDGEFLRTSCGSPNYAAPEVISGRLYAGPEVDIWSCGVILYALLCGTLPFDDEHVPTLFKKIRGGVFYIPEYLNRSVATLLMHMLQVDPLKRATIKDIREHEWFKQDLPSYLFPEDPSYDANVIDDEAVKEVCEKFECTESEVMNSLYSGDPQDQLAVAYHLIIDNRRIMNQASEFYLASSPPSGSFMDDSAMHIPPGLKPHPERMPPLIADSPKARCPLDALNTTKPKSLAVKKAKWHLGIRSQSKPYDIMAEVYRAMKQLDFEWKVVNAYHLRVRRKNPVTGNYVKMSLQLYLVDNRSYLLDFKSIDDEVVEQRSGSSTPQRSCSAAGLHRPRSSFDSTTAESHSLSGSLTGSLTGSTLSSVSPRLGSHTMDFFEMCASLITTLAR
Chain of AMPK alpha2/beta1/gamma1 (Homo sapiens) (Q9Y478 2-270 partner limits assumed): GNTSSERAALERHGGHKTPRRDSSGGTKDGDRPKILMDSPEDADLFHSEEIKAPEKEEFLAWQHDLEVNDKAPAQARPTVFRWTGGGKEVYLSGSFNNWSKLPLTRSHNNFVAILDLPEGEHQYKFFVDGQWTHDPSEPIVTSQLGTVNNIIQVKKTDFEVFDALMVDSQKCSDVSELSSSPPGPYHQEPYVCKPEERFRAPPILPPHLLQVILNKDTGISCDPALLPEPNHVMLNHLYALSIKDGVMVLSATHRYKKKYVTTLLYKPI

[4] = Oral bioavailability in Sprague-Dawley rat at 10 mg/kg; assay type: ADME, organism-based; details: in vivo
[5] = biological target: AMPK alpha1/beta1/gamma2 (Homo sapiens) (UniProt Q9UGJ0+Q9Y478+Q13131); assay: Activation of human recombinant AMPKalpha1beta1gamma2 expressed in Escherichia coli at 20 uM incubated for 1 hr using serine/threonine kinase substrate
Chain of AMPK alpha1/beta1/gamma2 (Homo sapiens) (Q13131 whole entry partner): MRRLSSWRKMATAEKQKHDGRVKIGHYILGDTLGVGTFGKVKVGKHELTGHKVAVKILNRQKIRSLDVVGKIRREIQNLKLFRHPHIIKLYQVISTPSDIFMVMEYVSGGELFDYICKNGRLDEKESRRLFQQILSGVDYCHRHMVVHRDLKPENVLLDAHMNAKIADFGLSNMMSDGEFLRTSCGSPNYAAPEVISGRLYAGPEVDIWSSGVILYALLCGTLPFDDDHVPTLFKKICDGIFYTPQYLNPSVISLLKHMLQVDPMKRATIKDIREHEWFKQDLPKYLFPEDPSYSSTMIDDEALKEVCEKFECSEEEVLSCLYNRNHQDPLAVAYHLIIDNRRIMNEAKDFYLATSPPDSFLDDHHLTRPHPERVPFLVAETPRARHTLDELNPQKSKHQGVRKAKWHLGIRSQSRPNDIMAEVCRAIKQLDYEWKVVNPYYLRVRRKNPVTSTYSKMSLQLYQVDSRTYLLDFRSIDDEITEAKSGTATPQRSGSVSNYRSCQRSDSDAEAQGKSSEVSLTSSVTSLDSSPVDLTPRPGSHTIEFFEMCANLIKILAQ
Chain of AMPK alpha1/beta1/gamma2 (Homo sapiens) (Q9UGJ0 whole entry): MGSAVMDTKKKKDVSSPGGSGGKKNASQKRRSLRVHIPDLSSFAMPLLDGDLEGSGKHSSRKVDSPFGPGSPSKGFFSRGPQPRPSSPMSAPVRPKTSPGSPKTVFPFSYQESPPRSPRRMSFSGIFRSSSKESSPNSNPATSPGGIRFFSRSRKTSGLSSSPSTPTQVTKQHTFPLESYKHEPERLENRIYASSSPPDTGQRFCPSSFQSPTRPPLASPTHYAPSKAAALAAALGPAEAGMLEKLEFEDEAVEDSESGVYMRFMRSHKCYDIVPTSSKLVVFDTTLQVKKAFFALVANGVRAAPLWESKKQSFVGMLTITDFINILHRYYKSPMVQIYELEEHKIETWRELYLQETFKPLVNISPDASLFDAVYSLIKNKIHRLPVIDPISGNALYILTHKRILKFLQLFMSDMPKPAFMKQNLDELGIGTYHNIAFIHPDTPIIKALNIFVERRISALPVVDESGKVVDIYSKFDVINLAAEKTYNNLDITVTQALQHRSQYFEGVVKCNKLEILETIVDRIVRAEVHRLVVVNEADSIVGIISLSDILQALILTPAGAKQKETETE
Chain of AMPK alpha1/beta1/gamma2 (Homo sapiens) (Q9Y478 2-270 partner limits assumed): as the sequence (Q9Y478 2-270 partner limits assumed) above

[6] = tested on: L6; assay: Activation of AMPKalpha in rat L6 cells assessed as increase in ACC phosphorylation incubated for 1 hrs by Western blot method; assay type: cell-based
[7] = Half life in Sprague-Dawley rat at 10 mg/kg, po; assay type: ADME, organism-based; details: in vivo
[8] = Tmax in C57BL/6J mouse at 10 mg/kg, po; assay type: ADME, organism-based; details: in vivo
[9] = tested on: L6; assay: Activation of AMPKalpha in rat L6 cells assessed as increase in AMPKalpha Thr172 phosphorylation incubated for 1 hrs by Western blot method; assay type: cell-based
[10] = tested on: Hepatocyte; assay: Inhibition of glucose production in Sprague-Dawley rat primary hepatocytes grown under gluconeogenic medium assessed as glucose production level at 5 uM incubated for 6 hrs by glucose assay reagent based glucose oxidase method (reference value: 100%); assay type: functional; design: scale not given: the % may be the effect or the level left
[11] = AUCt in Sprague-Dawley rat at 2 mg/kg, iv; assay type: ADME, organism-based; details: in vivo
[12] = AUCt in C57BL/6J mouse at 10 mg/kg, po; assay type: ADME, organism-based; details: in vivo
[13] = tested on: L6; assay: Inhibition of oxygen consumption rate in rat L6 cells assessed as oxygen consumption level at 20 uM (reference value: 100 +/- 1.6%); assay type: functional; design: scale not given: the % may be the effect or the level left
[14] = biological target: AMP-activated protein kinase alpha-2/beta-1/gamma-3 (Homo sapiens) (UniProt P54646+Q9Y478+Q9UGI9); assay: Activation of human recombinant AMPKalpha2beta1gamma3 expressed in Escherichia coli at 20 uM incubated for 1 hr using serine/threonine kinase substrate
[15] = AUC in C57BL/6J mouse at 10 mg/kg, po; assay type: ADME, organism-based; details: in vivo
[16] = biological target: AMP-activated protein kinase (AMPK) alpha-1/beta-1/gamma-1 (Homo sapiens) (UniProt P54619+Q9Y478+Q13131); assay: Activation of human recombinant AMPKalpha1beta1gamma1 expressed in Escherichia coli at 20 uM incubated for 1 hr using serine/threonine kinase substrate
Chain of AMP-activated protein kinase (AMPK) alpha-1/beta-1/gamma-1 (Homo sapiens) (P54619 whole entry): as the sequence (P54619 whole entry partner) above
Chain of AMP-activated protein kinase (AMPK) alpha-1/beta-1/gamma-1 (Homo sapiens) (Q13131 whole entry partner): as the sequence (Q13131 whole entry partner) above
Chain of AMP-activated protein kinase (AMPK) alpha-1/beta-1/gamma-1 (Homo sapiens) (Q9Y478 2-270 partner limits assumed): as the sequence (Q9Y478 2-270 partner limits assumed) above

[17] = Tmax in Sprague-Dawley rat at 2 mg/kg, iv; assay type: ADME, organism-based; details: in vivo
[18] = Cmax in Sprague-Dawley rat at 2 mg/kg, iv; assay type: ADME, organism-based; design: dose 2 mg/kg, route intravenous; details: in vivo
[19] = Cmax in Sprague-Dawley rat at 10 mg/kg, po; assay type: ADME, organism-based; design: dose 10 mg/kg, route oral; details: in vivo
[20] = MRT in C57BL/6J mouse at 10 mg/kg, po; assay type: ADME, organism-based; details: in vivo
[21] = Half life in Sprague-Dawley rat at 2 mg/kg, iv; assay type: ADME, organism-based; details: in vivo
[22] = AUC in Sprague-Dawley rat at 2 mg/kg, iv; assay type: ADME, organism-based; details: in vivo
[23] = tested on: L6; assay: Inhibition of oxygen consumption rate in rat L6 cells; assay type: functional, cell-based
[24] = MRT in Sprague-Dawley rat at 2 mg/kg, iv; assay type: ADME, organism-based; details: in vivo
[25] = tested on: Hepatocyte; assay: Inhibition of glucose production in Sprague-Dawley rat primary hepatocytes grown under gluconeogenic medium assessed as glucose production level at 20 uM incubated for 6 hrs by glucose assay reagent based glucose oxidase method (reference value: 100%); assay type: functional; design: scale not given: the % may be the effect or the level left
[26] = tested on: Hepatocyte; assay: Potency index, ratio of berberine potency to compound potency for inhibition of glucose production in Sprague-Dawley rat primary hepatocytes grown under gluconeogenic medium aincubated for 6 hrs by glucose assay reagent based glucose oxidase method; assay type: functional
[27] = Tmax in Sprague-Dawley rat at 10 mg/kg, po; assay type: ADME, organism-based; details: in vivo
[28] = MRT in Sprague-Dawley rat at 10 mg/kg, po; assay type: ADME, organism-based; details: in vivo
[29] = AUC in Sprague-Dawley rat at 10 mg/kg, po; assay type: ADME, organism-based; details: in vivo
[30] = tested on: Mus musculus; assay: Antidiabetic activity in db/db mouse assessed as effect on glucose tolerance capacity by measuring blood glucose AUC level at 120 mg/kg/day dosed via gavage for 4 weeks by OGTT; assay type: functional, organism-based
[31] = tested on: L6; assay: Stimulation of glucose consumption in rat L6 cells at 20 uM incubated for 12 hrs by glucose assay reagent based glucose oxidase method relative to untreated control; assay type: functional
[32] = biological target: AMPK alpha2/beta2/gamma1 (Homo sapiens) (UniProt P54646+O43741+P54619); assay: Activation of human recombinant AMPKalpha2beta2gamma1 expressed in Escherichia coli at 20 uM incubated for 1 hr using serine/threonine kinase substrate
[33] = tested on: L6; assay: Inhibition of oxygen consumption rate in isolated mitochondria from rat L6 cells; assay type: functional
[34] = tested on: Hepatocyte; assay: Inhibition of glucose production in Sprague-Dawley rat primary hepatocytes grown under gluconeogenic medium assessed as glucose production level at 10 uM incubated for 6 hrs by glucose assay reagent based glucose oxidase method (reference value: 100%); assay type: functional; design: scale not given: the % may be the effect or the level left
[35] = tested on: Mus musculus; assay: Antidiabetic activity in db/db mouse assessed as reduction in fasting blood glucose level at 120 mg/kg/day dosed via gavage for 4 weeks measured during 2 to 4 weeks; assay type: functional, organism-based
[36] = tested on: L6; assay: Inhibition of oxygen consumption rate in rat L6 cells assessed as oxygen consumption level at 10 uM (reference value: 100 +/- 1.6%); assay type: functional; design: scale not given: the % may be the effect or the level left
[37] = tested on: Hepatocyte; assay: Inhibition of glucose production in Sprague-Dawley rat primary hepatocytes grown under gluconeogenic medium incubated for 6 hrs by glucose assay reagent based glucose oxidase method (reference value: 100%); assay type: functional, cell-based
[38] = biological target: AMP-activated protein kinase alpha-2/beta-2/gamma-2 (Homo sapiens) (UniProt P54646+O43741+Q9UGJ0); assay: Activation of human recombinant AMPKalpha2beta2gamma2 expressed in Escherichia coli at 20 uM incubated for 1 hr using serine/threonine kinase substrate
[39] = biological target: Voltage-gated inwardly rectifying potassium channel KCNH2 (Homo sapiens, UniProt Q12809); assay: Inhibition of human ERG by patch clamp assay
Chain of Voltage-gated inwardly rectifying potassium channel KCNH2 (Q12809 whole entry): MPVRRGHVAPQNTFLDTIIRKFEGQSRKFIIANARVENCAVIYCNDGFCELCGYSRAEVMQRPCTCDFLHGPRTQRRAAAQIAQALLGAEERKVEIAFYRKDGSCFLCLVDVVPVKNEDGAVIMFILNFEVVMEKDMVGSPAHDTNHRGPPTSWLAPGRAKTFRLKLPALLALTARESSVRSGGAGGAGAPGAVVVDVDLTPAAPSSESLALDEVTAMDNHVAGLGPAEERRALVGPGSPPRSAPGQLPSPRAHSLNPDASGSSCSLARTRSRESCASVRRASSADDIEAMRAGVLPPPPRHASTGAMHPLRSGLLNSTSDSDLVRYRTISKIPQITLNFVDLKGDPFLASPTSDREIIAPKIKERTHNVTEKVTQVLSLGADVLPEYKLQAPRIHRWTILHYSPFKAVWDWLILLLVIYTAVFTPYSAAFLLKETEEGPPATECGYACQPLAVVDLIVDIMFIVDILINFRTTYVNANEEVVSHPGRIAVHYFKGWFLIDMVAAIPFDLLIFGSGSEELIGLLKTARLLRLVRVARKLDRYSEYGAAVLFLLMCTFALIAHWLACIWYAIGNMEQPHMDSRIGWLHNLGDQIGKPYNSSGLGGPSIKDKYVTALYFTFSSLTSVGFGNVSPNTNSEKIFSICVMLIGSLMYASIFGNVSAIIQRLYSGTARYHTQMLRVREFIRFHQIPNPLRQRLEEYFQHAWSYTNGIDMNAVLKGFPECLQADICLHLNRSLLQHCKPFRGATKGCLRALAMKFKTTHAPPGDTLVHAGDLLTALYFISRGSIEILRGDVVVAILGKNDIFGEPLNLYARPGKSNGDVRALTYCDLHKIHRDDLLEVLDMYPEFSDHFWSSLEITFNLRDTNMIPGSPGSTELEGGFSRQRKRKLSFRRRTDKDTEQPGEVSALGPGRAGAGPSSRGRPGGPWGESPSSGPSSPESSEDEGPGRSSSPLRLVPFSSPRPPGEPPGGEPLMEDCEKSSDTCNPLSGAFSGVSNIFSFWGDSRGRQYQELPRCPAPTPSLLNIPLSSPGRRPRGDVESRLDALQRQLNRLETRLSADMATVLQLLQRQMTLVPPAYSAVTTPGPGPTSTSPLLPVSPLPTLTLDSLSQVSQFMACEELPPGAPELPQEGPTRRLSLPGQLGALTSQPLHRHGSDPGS

[40] = Inhibition of oxygen consumption rate in isolated mitochondria from rat L6 cells assessed as oxygen consumption level at 2.5 uM (reference value: 100 +/- 1.9%); assay type: functional; design: scale not given: the % may be the effect or the level left
[41] = biological target: AMP-activated protein kinase alpha-1/beta-2/gamma-3 (Homo sapiens) (UniProt O43741+Q13131+Q9UGI9); assay: Activation of human recombinant AMPKalpha1beta2gamma3 expressed in Escherichia coli at 20 uM incubated for 1 hr using serine/threonine kinase substrate
[42] = Inhibition of oxygen consumption rate in isolated mitochondria from rat L6 cells assessed as oxygen consumption level at 1.2 uM (reference value: 100 +/- 1.9%); assay type: functional; design: scale not given: the % may be the effect or the level left
[43] = Inhibition of oxygen consumption rate in isolated mitochondria from rat L6 cells assessed as oxygen consumption level at 5 uM (reference value: 100 +/- 1.9%); assay type: functional; design: scale not given: the % may be the effect or the level left
[44] = tested on: L6; assay: Inhibition of mitochondrial membranes potential in rat L6 cells assessed as mitochondrial membranes potential level at 20 uM incubated for 40 mins by JC1 dye staining based fluorescence assay (reference value: 100 +/- 2.8%); assay type: functional; design: scale not given: the % may be the effect or the level left
[45] = tested on: Rattus norvegicus; assay: Clearance in Sprague-Dawley rat at 2 mg/kg, iv; assay type: ADME, organism-based; details: in vivo
[46] = Cmax in C57BL/6J mouse at 10 mg/kg, po; assay type: ADME, organism-based; design: dose 10 mg/kg, route oral; details: in vivo
[47] = AUCt in Sprague-Dawley rat at 10 mg/kg, po; assay type: ADME, organism-based; details: in vivo

Q: What does the source list for CCc1cc2c(s1)CCN1Cc3c(OC)ccc(OC)c3CC21 (configuration not stated)?
A: Activity [1]: 41.7%; Activity [2]: inactive; Activity [3]: inactive; bioavailability [4]: 45.4%; Activity [5]: inactive; Activity [6]: Dose-dependent effect; half-life [7]: 7.2 h; Tmax [8]: 0.25 h; Activity [9]: Dose-dependent effect; Activity [10]: 25.7%; AUC(0-t) [11]: 364 ng·h/mL; AUC(0-t) [12]: 188 ng·h/mL; Activity [13]: 47.5%; Activity [14]: inactive; AUC [15]: 244 ng·h/mL; Activity [16]: inactive; Tmax [17]: 0.25 h; Cmax [18]: 114 ng/mL; Cmax [19]: 162 ng/mL; MRT [20]: 5.1 h; half-life [21]: 10.8 h; AUC [22]: 432 ng·h/mL; inhibition [23]: Dose-dependent effect; MRT [24]: 5.8 h; Activity [25]: 14.9%; Ratio [26]: 1.7; Tmax [27]: 0.5 h; MRT [28]: 5.5 h; AUC [29]: 889 ng·h/mL; Activity [30]: inactive; Activity [31]: 228.3%; Activity [32]: inactive; inhibition [33]: Dose-dependent effect; Activity [34]: 16.3%; Activity [35]: Active; Activity [36]: 54%; inhibition [37]: Dose-dependent effect; Activity [38]: inactive; IC50 [39]: 10.5 µM; Activity [40]: 66.3%; Activity [41]: inactive; Activity [42]: 76.2%; Activity [43]: 54%; Activity [44]: 59.5%; clearance [45]: 76.7 mL/min/kg; Cmax [46]: 113 ng/mL; AUC(0-t) [47]: 825 ng·h/mL
